Where a name gives a salt, the structure may show the parent alone. Read-outs that look alike come from different tables or passages of the source.
Columns and labels:
IL-23 (p19/p40) = assay: IL23-p19 ELISA, Dendritic, LPS (compound screening using DC cells); format: cell-based, Human
Procedure: Compound Screening Using DC Cells
Human PBMC cells (400 million) obtained from the vendor were transferred into a T-175 flask containing 15 ml RPMI media (10% FBS) and incubate for 2 hours at 37° C. After 2 hours, the media including floating cells was aspirated out carefully and 12 ml of fresh RPMI media (10% FBS) containing GMCSF (100 ng/ml) and IL4 (20 ng/ml) was added, and the flask was kept in a 37° C. incubator for 7 days.
After 3 days, fresh GMCSF (100 ng/ml) and IL4 (20 ng/ml) were added to the flask and the incubation continued. After 7 days, the fully differentiated cells were harvested by spinning down (1200 rpm/5 min) and aspirating the media. The cells were suspended in fresh RPMI media (10% FBS) containing 50 ng/ml IFNγ (1000 U/ml) and then plated (50K/well in 100 μl) onto a white clear bottom 96 well plate and left in a 37° C. incubator for 24 hours.
After 24 hours incubation, 100 μl of RPMI media was added containing 2× concentrated test compound per well to the above cell-culture media (final concentration becomes 1×) and the plates were pre-incubated for 1 hour at 37° C. before stimulating with LPS.
After 1 hour compound pre-incubation, 10 piper well of 20× concentrated LPS solution in RPMI media was added to give a final concentration of 1 μg/ml. The mixture was shaken and incubated the plates at 37° C. for an additional 18 hours.
155 μl of the supernatant was harvested from each well carefully (without the tip touching the bottom of the well) and to the remaining 50 μl/well of the cell culture plate was added 50 μl of Cell Titer Glo reagent. The mixture was incubated for 1-2 minutes on a shaker and the plate was read for luminescence intensity to determine the compound cytotoxicity. The cell culture supernatant collected above was used to carry out IL23 ELISA (65 μl -Supernatant) and IL10 ELISA (90 μl—Supernatant) as described below.
Human IL-23 (p19/p40) ELISA Protocol (e-Biosciences)
To 10.5 ml PBS add 50 μl of anti-IL23 (p19) was added capture antibody (2.5 μg/ml). The mixture was mixed well and 100 μl of the coating solution was added to each well of the 96 well white plates from Pierce. The wells were covered and incubated overnight at 4° C.
The anti-IL23 (p19)-antibody-coated plates were washed 2× using TBST (use plate washer) and blocked using 200 μl of 0.5% Casein for 1.5-2 hours at room temperature with shaking.
The plates were washed 2× using TBST and the supernatant was transferred (65 μl/well) to the above pre-blocked/IL23(p19)-antibody-coated 96 well plate, and incubated at room temperature for 1.5 hours with shaking.
The plates were washed 4× using TBST (plate washer) and 100 μl/well detection antibody solution prepared from 2 μl of biotin labeled anti-IL-12 (p40/p70) antibody in 11 ml 1% BSA/PBS solution (1-5000 dilution) was added. The plates were incubated for 1 hour with shaking at Room temperature.
Again, the plates were washed 4× with TBST and 100 μl of HRP labeled Streptavidin (R&D Systems) solution (10 μl/10 ml 1% BSA solution) was added, and the plates were incubated at room temperature for another 45 minutes with shaking.
After 45 minutes, the plates were washed with TBST 4× and 100 ul/well Super Signal ELISA Pico Chemiluminescent Substrate from Pierce (3.5 ml A+3.5 ml B+3.5 ml MQ water) was added. The plates were shaken for 1-2 minutes then read on a plate reader.

IL-23p19 = assay: LPS induced IL23p19 in THP-1 cells (with IFNγ primed) assay; format: cell-based, Human
Excerpt: LPS Induced IL23p19 in THP-1 Cells (with IFNγ Primed) Assay
THP-1 Cells (ATCC, Cat#TIB-202), Dimethyl Sulfoxide (DMSO) (Sigma-Aldrich, Cat#D2650), RPMI 1640 (Cellgro, Cat#10-040-CM), Fetal Bovine Serum (Sigma, Cat#F4135), Albumin From Bovine Serum (BSA) (Sigma-Aldrich, Cat#A7906), LPS (Serotype K-235, Sigma, Product Number L 2143), IFNγ (Peprotech, Cat#300-02) Capture antibody: Human IL-23p19 ELISA (e-Bioscience, Cat. #14-7238-85), Detection antibody: Primary Mouse Biotinylated anti-human IL-12(p40/p70) (e-Bioscience, Cat. #13-7129-85), Secondary HRP-conjugated Streptavidin (R&D Systems, Cat#DY998), 1×PBST Washing Buffer (PBS-Tween tablet) (VWR International, Cat#80058-558), ELISA Blocking Buffer (PBS with 1% BSA), ELISA Dilution Buffer (PBS with 1% BSA), 384 Well Flat-Bottom, MaxiSorp Black Immuno Plates (Thermo Scientific, Cat#12-565-346), 384 Well Flat-Bottom, White Tissue Culture Plates (Thermo Scientific, Cat#12-565-343), Super Signal ELISA Pico Chemiluminescent Substrate (Thermo Scientific, Cat#37070), Cell Titer Glo reagent (Promega, Cat#G7573), Positive control, IKK2VI inhibitor (Calbiochem, Cat#401483), AquaMax 4000 plate washer (Molecular Devices), Luminometer, Wallac Victor2 1420 Multilabel Counter.
On day 1, 50K/well THP-1 cells were seeded and primed with IFNγ (50 ng/mL) in 384-well plates for about 18 hours in RPMI media with 10% FBS. On day 2, the compound was serially diluted in DMSO from 5 mM in 3-fold dilutions, and then diluted 1:125 in RPMI media with 10% FBS. 50 μL/well 2× compound was added to 50 μL/well THP-1 cells (with IFNγ primed) in duplicate in 384 well tissue culture plates. The cells were pre-incubated with compound for 1 hour at 37° C., 5% CO2 before addition of 10 μL/well 11×LPS to give a final concentration of 1 ug/mL LPS. Day 3, after stimulation for 18 hours at 37° C., 5% CO2, the assay plate was centrifuged and 70 μL/well supernatant was harvested. IL-23p19 protein in 70 μL/well of supernatant was measured by sandwich ELISA, and 25 μl/well Cell Titer Glo reagent was added to the remaining cells to measure compound toxicity.
Maxisorp immuno ELISA plates were pre-coated with 25 μL/well of anti-IL-23p19 capture antibody (2.5 ug/mL) in PBS overnight at room temperature. After washing with 1× PBST, the plates were blocked using 100 μL/well of 1% BSA in PBS for 2 hours at room temperature. The plates were washed three times with 1×PBST and 70 μL/well supernatant were added. The plates were incubated at room temperature for 2 hours with shaking and washed three times with 1×PBST. 25 μL/well of biotin labeled anti-IL-12(p40/p70) detection antibody (100 ng/mL) in PBS with 1% BSA was added and the plates were incubated at room temperature for 2 hours with shaking. After washing three times with 1×PBST, 25 μL/well of streptavidin-HRP (1:200) in PBS with 1% BSA was added and the plates were incubated at room temperature for 20 minutes with shaking. The plates were washed three times with 1× PBST and 25 μL/well of Super Signal ELISA Pico Chemiluminescent Substrate were added. The plates were read with a luminometer, and the chemiluminescence values were entered into Athena (Rigel) for curve fitting, EC50 calculation, and database storage.

[1] = Homo sapiens, 18 h, PBMC-derived DC cells, IFNγ primed, LPS 1 μg/ml, 18 hours, 10 pt, read-out: IL23-p19 ELISA, Dendritic, LPS, 10 pt, EC50
[2] = Homo sapiens, THP-1, 18 h, THP-1 cells, IFNγ primed, LPS 1 ug/mL, 18 hours, 10 pt, read-out: IL23-p19 ELISA, THP1-IFNy, LPS, 10 pt EC50

EC50 (IL-23 (p19/p40); [1])	EC50 (IL-23p19; [2])	Structure (SMILES)	other results
3.27 µM	21.9 µM	COCCn1cc(NC(=O)c2ccc(-c3cnn(COP(=O)(OC(C)(C)C)OC(C)(C)C)c3)o2)c(-c2ccccn2)n1 [Compound I-10, di-tert-butyl ((4-(5-((1-(2-methoxyethyl)-3-(pyridin-2-yl)-1H-pyrazol-4-yl)carbamoyl)furan-2-yl)-1H-pyrazol-1-yl)methyl) phosphate]	
5.19 µM	4.84 µM	COCCn1cc(NC(=O)c2ccc(-c3cnn(COP(=O)(O)OC(C)(C)C)c3)o2)c(-c2ccccn2)n1 [Compound I-11, tert-butyl ((4-(5-((1-(2-methoxyethyl)-3-(pyridin-2-yl)-1H-pyrazol-4-yl)carbamoyl)furan-2-yl)-1H-pyrazol-1-yl)methyl) hydrogen phosphate]	
11 µM	136 µM	COCCn1cc(NC(=O)c2ccc(-c3c[nH]nc3C(F)(F)F)o2)c(-c2ccccn2)n1 [Compound I-13, N-(1-(2-methoxyethyl)-3-(pyridin-2-yl)-1H-pyrazol-4-yl)-5-(3-(trifluoromethyl)-1H-pyrazol-4-yl)furan-2-carboxamide]	
		COCCn1cc(NC(=O)c2ccc(-c3cnn(COP(=O)(O)O)c3)o2)c(-c2ccccn2)n1 [Compound I-14, sodium (4-(5-((1-(2-methoxyethyl)-3-(pyridin-2-yl)-1H-pyrazol-4-yl)carbamoyl)furan-2-yl)-1H-pyrazol-1-yl)methyl phosphate]	EC50 (IL-23 (p19/p40); Homo sapiens, 18 h, read-out: IL23-p19 ELISA, Dendritic, LPS, 10 pt, EC50 (μM)): 0.571 µM; EC50 (IL-23p19; Homo sapiens, THP-1, 18 h, read-out: IL23-p19 ELISA, THP1-IFNy, LPS, 10 pt EC50 (μM)): 1.25 µM
2.2 µM	2.23 µM	O=C(Nc1cn(CCO)nc1-c1ncccn1)c1ccc(-c2cn[nH]c2)o1 [Compound I-15, N-(1-(2-hydroxyethyl)-3-(pyrimidin-2-yl)-1H-pyrazol-4-yl)-5-(1H-pyrazol-4-yl)furan-2-carboxamide]	
0.403 µM		COCCOCCn1cc(NC(=O)c2ccc(-c3cn[nH]c3)o2)c(-c2ccccn2)n1 [Compound I-16, N-(1-(2-(2-methoxyethoxy)ethyl)-3-(pyridin-2-yl)-1H-pyrazol-4-yl)-5-(1H-pyrazol-4-yl)furan-2-carboxamide]	EC50 (IL-23p19; THP-1 cells, IFNγ primed, LPS 1 ug/mL, 18 hours, 10 pt, read-out: IL23-p19 ELISA, THP1-IFNy, LPS, 10 pt EC50): 0.125 µM
		COCCOCCn1cc(NC(=O)c2ccc(-c3cn[nH]c3)o2)c(-c2ccccn2)n1 [Compound I-17, N-(1-(2-(2-methoxyethoxy)ethyl)-3-(pyridin-2-yl)-1H-pyrazol-4-yl)-5-(1H-pyrazol-4-yl)furan-2-carboxamide hydrochloride salt]	EC50 (IL-23 (p19/p40); PBMC-derived DC cells, IFNγ primed, LPS 1 μg/ml, 18 hours, 10 pt, hydrochloride salt, read-out: IL23-p19 ELISA, Dendritic, LPS, 10 pt, EC50): 0.424 µM; EC50 (IL-23p19; THP-1 cells, IFNγ primed, LPS 1 ug/mL, 18 hours, 10 pt, hydrochloride salt, read-out: IL23-p19 ELISA, THP1-IFNy, LPS, 10 pt EC50): 0.285 µM
1.2 µM	0.514 µM	COCCOCCn1cc(NC(=O)c2ccc(-c3c[nH]nc3C)o2)c(-c2ccccn2)n1 [Compound I-18, N-(1-(2-(2-methoxyethoxy)ethyl)-3-(pyridin-2-yl)-1H-pyrazol-4-yl)-5-(3-methyl-1H-pyrazol-4-yl)furan-2-carboxamide]	
0.337 µM	0.3 µM	COCCn1cc(NC(=O)c2ccc(-c3cnn(C(=O)OC(C)OC(=O)C(C)C)c3)o2)c(-c2ccccn2)n1 (stereo not drawn) [Compound I-19, 1-(isobutyryloxy)ethyl 4-(5-((1-(2-methoxyethyl)-3-(pyridin-2-yl)-1H-pyrazol-4-yl)carbamoyl)furan-2-yl)-1H-pyrazole-1-carboxylate]	
0.195 µM	0.167 µM	COCCn1cc(NC(=O)c2ccc(-c3cnn(C(=O)[C@@H](NC(=O)OC(C)(C)C)C(C)C)c3)o2)c(-c2ccccn2)n1 [Compound I-20, tert-butyl (S)-(1-(4-(5-((1-(2-methoxyethyl)-3-(pyridin-2-yl)-1H-pyrazol-4-yl)carbamoyl)furan-2-yl)-1H-pyrazol-1-yl)-3-methyl-1-oxobutan-2-yl)carbamate]	
0.458 µM	0.201 µM	COCCn1cc(NC(=O)c2ccc(-c3cnn(C(=O)OC4(C)CC4)c3)o2)c(-c2ccccn2)n1 [Compound I-21, 1-methylcyclopropyl 4-(5-((1-(2-methoxyethyl)-3-(pyridin-2-yl)-1H-pyrazol-4-yl)carbamoyl)furan-2-yl)-1H-pyrazole-1-carboxylate]	

Structure (SMILES)	EC50 (IL-23 (p19/p40); [1])	EC50 (IL-23p19; [2])	other results
COCCn1cc(NC(=O)c2ccc(-c3cnn(COP(=O)(O)O)c3)o2)c(-c2ccccn2)n1 [Compound I-12, (4-(5-((1-(2-methoxyethyl)-3-(pyridin-2-yl)-1H-pyrazol-4-yl)carbamoyl)furan-2-yl)-1H-pyrazol-1-yl)methyl dihydrogen phosphate]	1.05 µM	0.593 µM	

From patent US10208074B2, “Pyrazole compounds and method for making and using the compounds” (Rigel Pharmaceuticals, Inc., priority 2015, dated 2019)
